Source: patent publication US20130224234A1, “TTLL4 PEPTIDES AND VACCINES CONTAINING THE SAME” (Onco Therapy Science, Inc., priority 2010, published 2013)
Entries after “also recorded” stand apart in the source; their conditions may differ.

Tests used:
peptide-pulsed T2 cells [1] = assay: In vitro CTL induction, IFN-gamma ELISPOT assay (HLA-A*0201); assay type: cell-based, human; details: CTLs induced with peptide from HLA-A*0201 positive donor, peptide-pulsed T2 vs control
From the text: Monocyte-derived dendritic cells (DCs) were used as antigen-presenting cells to induce cytotoxic T lymphocyte (CTL) responses against peptides presented on human leukocyte antigen (HLA). DCs were generated in vitro as described elsewhere (Nakahara S et al., Cancer Res 2003, 63(14): 4112-8). Specifically, peripheral blood mononuclear cells isolated from a normal volunteer (HLA-A*0201 positive) by Ficoll-Plaque (Pharmacia) solution were separated by adherence to a plastic tissue culture dish (Becton Dickinson) so as to enrich them as the monocyte fraction. The monocyte-enriched population was cultured in the presence of 1000 U/ml of granulocyte-macrophage colony-stimulating factor (R&D System) and 1000 U/ml of interleukin (IL)-4 (R&D System) in AIM-V Medium (Invitrogen) containing 2% heat-inactivated autologous serum (AS). After 7 days of culture, the cytokine-induced DCs were pulsed with 20 micro-g/ml of each of the synthesized peptides in the presence of 3 micro-g/ml of beta 2-microglobulin for 3 hr at 37 degrees C. in AIM-V Medium. The generated cells appeared to express DC-associated molecules, such as CD80, CD83, CD86 and HLA class II, on their cell surfaces (data not shown). These peptide-pulsed DCs were then inactivated by X-irradiation (20 Gy) and mixing at a 1:20 ratio with autologous CD8+ T cells, obtained by positive selection with CD8 Positive Isolation Kit (Dynal). These cultures were set up in 48-well plates (Corning); each well contained 1.5×10^4 peptide-pulsed DCs, 3×10^5 CD8+ T cells and 10 ng/ml of IL-7 (R&D System) in 0.5 ml of AIM-V/2% AS medium. Three days later, these cultures were supplemented with IL-2 (CHIRON) to a final concentration of 20 IU/ml. On day 7 and 14, the T cells were further stimulated with the autologous peptide-pulsed DCs. The DCs were prepared each time by the same way described above. CTL was tested against peptide-pulsed T2 cells after the 3rd round of peptide stimulation on day 21 (Tanaka H et al., Br J Cancer 2001, 84(1): 94-9; Umano Y et al., Br J Cancer 2001, 84(8): 1052-7; Uchida N et al., Clin Cancer Res 2004, 10(24): 8577-86; Suda T et al., Cancer Sci 2006, 97(5): 411-9; Watanabe T et al., Cancer Sci 2005, 96(8): 498-506).
(§1) Specifically, peptide-pulsed T2 (1×10^4/well) was prepared as stimulator cells. Cultured cells in 48 wells were used as responder cells. IFN-gamma ELISPOT assay and IFN-gamma ELISA assay were performed under manufacture procedure.
CTLs for those peptides derived from TTLL4 were generated according to the protocols as described in “Materials and Methods”.

peptide-pulsed T2 cells [2] = assay: IFN-gamma ELISA assay of CTL clones (HLA-A*0201); assay type: cell-based, human; details: CTL clones by limiting dilution, target cells pulsed with peptide vs control
Protocol: The dilutions were made to have 0.3, 1, and 3 CTLs/well in 96 round-bottomed micro titer plate (Nalge Nunc International). CTLs were cultured with 1×10^4 cells/well of 2 kinds of human B-lymphoblastoid cell lines, 30 ng/ml of anti-CD3 antibody, and 125 U/ml of IL-2 in a total of 150 micro-l/well of AIM-V Medium containing 5% AS. 50 micro-l/well of IL-2 were added to the medium 10 days later so to reach a final concentration of 125 U/ml IL-2. CTL activity was tested on the 14th day, and CTL clones were expanded using the same method as described above (Uchida N et al., Clin Cancer Res 2004, 10(24): 8577-86; Suda T et al., Cancer Sci 2006, 97(5): 411-9; Watanabe T et al., Cancer Sci 2005, 96(8): 498-506).
as §1
(§2) CTL activity of these CTL lines was determined by IFN-gamma ELISA assay (FIG. 6a-d). […] Furthermore, the CTL clones were established by limiting dilution from the CTL lines as described in “Materials and Methods”, and IFN-gamma production from the CTL clones against target cells pulsed peptide was determined by IFN-gamma ELISA assay.

peptide-pulsed T2 cells [3] = assay: IFN-gamma ELISA assay of CTL lines (HLA-A*0201); assay type: cell-based, human; details: CTL lines stimulated with peptide, target cells pulsed with peptide vs without peptide pulse
Protocol: CTLs were expanded in culture using the method similar to the one described by Riddell et al. (Walter E A et al., N Engl J Med 1995, 333(16): 1038-44; Riddell S R et al., Nat Med 1996, 2(2): 216-23). A total of 5×10^4 CTLs were suspended in 25 ml of AIM-V/5% AS medium with 2 kinds of human B-lymphoblastoid cell lines, inactivated by Mitomycin C, in the presence of 40 ng/ml of anti-CD3 monoclonal antibody (Pharmingen). One day after initiating the cultures, 120 IU/ml of IL-2 were added to the cultures. The cultures were fed with fresh AIM-V/5% AS medium containing 30 IU/ml of IL-2 on days 5, 8 and 11 (Tanaka H et al., Br J Cancer 2001, 84(1): 94-9; Umano Y et al., Br J Cancer 2001, 84(8): 1052-7; Uchida N et al., Clin Cancer Res 2004, 10(24): 8577-86; Suda T et al., Cancer Sci 2006, 97(5): 411-9; Watanabe T et al., Cancer Sci 2005, 96(8): 498-506).
as §1, §2

[4] = tested on: COS7 cells transfected with TTLL4 and HLA-A*0201; assay: Specific CTL activity against target cells expressing TTLL4 and HLA-A*0201; assay type: cell-based, African green monkey; details: for Specific CTL activity against COS7 cells transfected with both TTLL4 and HLA-A*0201: CTL clone (9-805) or CTL line (9-66) established with peptide; for Specific CTL activity against control COS7 cells expressing either HLA-A*0201 or TTLL4: controls: COS7 transfected with only full length TTLL4 or only HLA-A*0201
From the text: The cDNA encoding an open reading frame of target genes or HLA-A*0201 was amplified by PCR. The PCR-amplified product was cloned into a vector. The plasmids were transfected into COST, which is the target genes and HLA-A*0201-null cell line, using lipofectamine 2000 (Invitrogen) according to the manufacturer's recommended procedures. After 2 days from transfection, the transfected cells were harvested with versene (Invitrogen) and used as the target cells (5×10^4 cells/well) for CTL activity assay.
The established CTL lines and clones raised against each peptide were examined for the ability to recognize target cells that express TTLL4 and HLA-A*0201 molecule. […] COS7 cells transfected with either full length of TTLL4 or HLA-A*0201 were prepared as the controls.

Sequence: ALIYSLFPNV [SEQ ID NO: 59]
- Peptide specific CTL activity (IFN-gamma production, ELISPOT) (peptide-pulsed T2 cells [1]; listed as TTLL4-A02-10-574): potent IFN-gamma production; also recorded: significant and specific CTL activity
- IFN-gamma production of CTL clones (ELISA) (peptide-pulsed T2 cells [2]; listed as TTLL4-A02-10-574): Potent IFN-gamma productions
- IFN-gamma production of CTL lines (ELISA) (peptide-pulsed T2 cells [3]): potent IFN-gamma production

Sequence: GLGPGLLGV [SEQ ID NO: 44]
- Peptide specific CTL activity (IFN-gamma production, ELISPOT) (peptide-pulsed T2 cells [1]; listed as TTLL4-A02-9-66): potent IFN-gamma production; also recorded: significant and specific CTL activity
- Specific CTL activity against COS7 cells transfected with both TTLL4 and HLA-A*0201 ([4]; listed as TTLL4-A02-9-66): specific CTL activity; also recorded: potent CTL activity
- Specific CTL activity against control COS7 cells expressing either HLA-A*0201 or TTLL4 [4]: no significant specific CTL activity was detected
- IFN-gamma production of CTL lines (ELISA) (peptide-pulsed T2 cells [3]): potent IFN-gamma production

Sequence: FMHLTNYSV [SEQ ID NO: 39]
- Peptide specific CTL activity (IFN-gamma production, ELISPOT) (peptide-pulsed T2 cells [1]; listed as TTLL4-A02-9-805): potent IFN-gamma production; also recorded: significant and specific CTL activity
- Specific CTL activity against COS7 cells transfected with both TTLL4 and HLA-A*0201 ([4]; listed as TTLL4-A02-9-805): specific CTL activity; also recorded: potent CTL activity
- Specific CTL activity against control COS7 cells expressing either HLA-A*0201 or TTLL4 [4]: no significant specific CTL activity was detected
- IFN-gamma production of CTL clones (ELISA) (peptide-pulsed T2 cells [2]; listed as TTLL4-A02-9-805): Potent IFN-gamma productions
- IFN-gamma production of CTL lines (ELISA) (peptide-pulsed T2 cells [3]): potent IFN-gamma production

Sequence: FMWPNSTPV [SEQ ID NO: 38]
- Peptide specific CTL activity (IFN-gamma production, ELISPOT) (peptide-pulsed T2 cells [1]; listed as TTLL4-A02-9-222): potent IFN-gamma production; also recorded: significant and specific CTL activity
- IFN-gamma production of CTL clones (ELISA) (peptide-pulsed T2 cells [2]; listed as TTLL4-A02-9-222): Potent IFN-gamma productions
- IFN-gamma production of CTL lines (ELISA) (peptide-pulsed T2 cells [3]): potent IFN-gamma production
